Experimental findings from patent US20250163484A1, “Methods for Incorporating Azido Groups in Bacterial Capsular Polysaccharides” (PFIZER INC., priority 2022, published 2025) are described below.

Some results are limits rather than exact numbers.

For series [1], the system named is S. pneumoniae T14. The series is described as follows: Growth of S. pneumoniae T14 in fermentation with azido sugar (OD600). The class given is cell-based, Streptococcus pneumoniae serotype 14.
Series [2] relates to S. pneumoniae T14. It is filed as cell-based, Streptococcus pneumoniae serotype 14. To be noted: production medium + Galactose (30 g/L). On the procedure: (§1) FIGS. 1A-1D. Screen for azido sugar incorporation into S. pneumoniae T14 capsule polysaccharide. […] Bacteria were grown until the ΔOD600≥0 for >30 minutes, then lysed with 0.1% NLS for 30 minutes. Growth was measured offline using a spectrophotometer blanked with PBS at 600 nm. (FIG. 1A) azido incorporation into polysaccharide was then quantified via fluorescent labeling (FL) with normalization to refractive index (RI). MaxOD and End Of Fermentation time (EOF) are provided in (FIG. 1B) and (FIG. 1C), respectively. Polysaccharide was extracted using EtOH and CaCl2 and analyzed via SEC-RI for (FIG. 1D) polysaccharide titer. n=1-4, error bars=+/−StDev.
FIGS. 2A-2D Impact of 2AzGlcAc4 concentration on S. pneumoniae T14 growth and poly production in production medium supplemented with Galactose (30 g/L). […] (FIG. 2A) Growth was measured offline using a spectrophotometer blanked with PBS at 600 nm. At the end of fermentation, cultures were lysed with 0.1% NLS for 30 min. and polysaccharide was extracted via EtOH/CaCl2) precipitation. Polysaccharide titer (FIG. 2B) and size (FIG. 2C) were measured via SEC-RI and SEC-MALS, respectively. (FIG. 2D) azido incorporation was then quantified via fluorescent labeling (FL) and normalized to the refractive index (RI). n=3, error bars=+/−StDev.
FIGS. 3A-3E Impact of 2AzGlc concentration on S. pneumoniae T14 growth and polysaccharide production in production medium supplemented with Galactose (30 g/L). […] (FIG. 3A) Growth was measured offline using a spectrophotometer blanked with PBS at 600 nm. Cultures were lysed with 0.1% NLS for 30 min. and polysaccharide was extracted via EtOH/CaCl2) precipitation. Polysaccharide (FIG. 3B/FIG. 3C) titer and (FIG. 3D) size were measured via SEC-RI and SEC-MALS, respectively. (FIG. 3E) azido incorporation was then quantified via fluorescent labeling (FL) and normalized to the refractive index (RI). n=3, error bars=+/−StDev.
We tested the impact of 2AzGlc concentration on S. pneumoniae T14 growth, polysaccharide production, and azido incorporation by growing the bacteria in production media (supplemented with Glucose (dextrose, 30 g/L)) with various concentrations of 2AzGlc (0, 1, 5, 10, 20, 40, and 60 mM).

In series [3] the test system is S. pneumoniae T14 capsule polysaccharide. It is filed as cell-based, Streptococcus pneumoniae serotype 14. To be noted: 2AzGlcAc4 2.5-10 mM, production medium + Galactose (30 g/L), DMSO 2%. As for the experimental part: as §1
A SEC fluorescence and Refractive index assay (SEC-FL/RI) was used for azide measurement to confirm the incorporation of azide modification.
Click-It Cell Reaction Buffer kit and Alexa Fluor 488 Alkyne were purchased from Invitrogen.
The initial procedure when running the SEC-FL/RI was to prepare the sample to a target concentration of 0.01 mg/m by mixing a pre-diluted polysaccharide to the final target concentration with the Click Reaction mixture. The reaction mixture consisted of 2.67 mM CuSO4, 2.67 mg/mL cell additive reagent, and 20 uM Alexa Fluor Alkyne. This was mixed with the sample at a 3:1 ratio of reaction mixture to sample and incubated in the absence of light. Reactions were transferred to HPLC vials and ran on the SEC-FL/RI HPLC setup. The RI detector (RID) allowed for detection of the polysaccharide while the Fluorescence Detector (FLD) was used to determine the level of fluor incorporated into the polysaccharide sample. The ratio of the two peak areas gave a measurement for the amount of azide incorporated to the polysaccharide.
Later, in addition to the incubation of the sample for thirty minutes, a buffer exchange step was added that washed out the unreacted fluor as well as the reaction matrix reagents in order to improve the baselines of the FLD and RID during the HPLC run. This added greater resolution of the peak associated with the azide functionalized polysaccharide. The assay was useful for relative quantitation of azide incorporation into the polysaccharide but could not quantify an exact numerical concentration. To improve this aspect work was undertaken to use a polysaccharide with known levels of azido functionalization to make a standard curve that varied the % Azido while keeping the polysaccharide mass the same. This was done by mixing the known azido modified poly (polysaccharide) with specific amounts of native (unmodified) polysaccharide. A strong linear fit for the generated standard curve was seen.
The values for percent azide were able to be converted to a μM azide per mM polysaccharide by converting from % azide using the constant polysaccharide concentration.

A short description of series [4]: Solubility of azido sugar in production medium. To be noted: production medium supplemented with galactose (30 g/L), aqueous buffer; read-out: limit of solubility. It is filed as physicochemical.

As a reminder, the solubility is the dissolved amount per volume that the medium holds.

For the compound `[N-]=[N+]=N[C@H]1[C@H](O)[C@@H](CO)OC(O)[C@@H]1O` (stereo partly drawn) [3AzGlc, 3-azido-3-deoxy-D-glucopyranose], in series [1] (screen, azido sugar 1 mM, only in production medium + Galactose), the “End Of Fermentation (EOF) time” value is reported as “elongated”.

Regarding `CC(=O)OC[C@H]1OC(O)[C@H](N=[N+]=[N-])[C@@H](OC(C)=O)[C@@H]1O` (stereo partly drawn) [2AzGlcAc2, 3,6-Di-O-acetyl-2-azido-2-deoxy-D-glucopyranose], in series [2] (azido sugar 20 mM without DMSO), the polysaccharide production entry is recorded as “strongly inhibited”. In addition, the growth result in series [1] (azido sugar 20 mM without DMSO, production medium + Galactose (30 g/L)) is listed as “strongly inhibited”.

For `CC(=O)OC[C@H]1OC(OC(C)=O)[C@H](N=[N+]=[N-])[C@@H](OC(C)=O)[C@@H]1OC(C)=O` (stereo partly drawn) [2AzGlcAc4, 1,3,4,6-Tetra-O-acetyl-2-azido-2-deoxy-D-glucopyranose], the “FL/RI with increasing concentrations” value in series [3] was “did not cause an increase”. Also, the solubility in series [4] was at most 1000 µM. Further, the polysaccharide titer result in series [2] (2AzGlcAc4 2.5, 5, 10 mM (not 7.5 mM), DMSO 2%) is “statistically significant reduction”. Besides, the impact on growth entry in series [1] (2AzGlcAc4 2.5, 5, 7.5, 10 mM, production medium + Galactose (30 g/L), DMSO 2%) is “no impact”.
